Test results taken from US9920057B2, “Substituted pyrazino[1′,2′:1 ,6]pyrido[3,4-b]indoles as phosphodiesterase type 5 inhibitors” (Chongqing University of Arts and Sciences, priority 2015, dated 2018).
pIC50: −log10 of the molar value. “And” between values parts separate entries of the source, which are not always exact repeats. Equal values may be shown once. Read-outs that look alike come from different tables or passages of the source.

What was measured:
[1] = Study on pharmacokinetics in rats, oral administration; format: in vivo, SD rat; conditions: oral 10.0 mg · kg^−1
Description: Sample Preparation Method: One step protein precipitation
Precipitant: ACN, with concentration of Verapamil (5.00 ng·mL-1)
Calibration Curve and QC samples Preparation: 5.00 μL each of the calibration or QC working solution and 45.0 μL of blank plasma were transferred into a 1.5-mL microcentrifuge tube. Final standard curve concentration levels were 1.00, 2.50, 5.00, 10.0, 50.0, 100, 500 and 1000 ng·mL-1. The QC concentration levels were 2.50 or 5.00, 50.0 and 800 ng·mL-1. Dilution QC was 5000 ng·mL-1.
Plasma Samples Preparation: Aliquots of 10.0 μL of real samples, calibration curve samples and QC samples were supplemented with 100 μL of precipitant. After vortexed for 3.00 min and centrifuged at 12000 rpm for 5.00 min, the supernatant 10 μL was injected for LC-MS/MS analysis.
Number of Rats/Group: 3/group
Administration Route: oral administration
Blood Collection Time: 0 min, 15 min, 30 min, 1 h, 2 h, 4 h, 6 h, 8 h, 24 h

normal rat = assay: Erectile function of normal rat: blood pressure, intracavernous pressure and detumescence time on cavernous nerve stimulation; format: in vivo; conditions: reference group (Calais), dose not stated
Description: Rats were anesthetized with 2% pentobarbital […], then incision was made in the right side of neck, a PE-50 silicon tube connected with a pressure transducer was inserted into the carotid artery, to record the change of the blood pressure.
The erectile activity was induced by a bipolar stainless-steel, stimulus parameters at a pulse width of […], stimulation frequency of 7.98 Hz, current of 3 mA, stimulation duration of 40 s, and then record the intracavernous pressure (ICP).
Assessment of erectile function: ICP, BP, change of ICP and detumescence time were monitored though electric cavernous nerve stimulation at 2, 6 and 24 hours post dosing. Erectile function was evaluated by change of ICP and detumescence time.

PDE1A = target: T1, PDE1A (Homo sapiens, UniProt P54750); assay: Inhibition of PDE activity (assay kit); format: biochemical
T1 construct: purchased
T1 sequence (P54750 whole entry): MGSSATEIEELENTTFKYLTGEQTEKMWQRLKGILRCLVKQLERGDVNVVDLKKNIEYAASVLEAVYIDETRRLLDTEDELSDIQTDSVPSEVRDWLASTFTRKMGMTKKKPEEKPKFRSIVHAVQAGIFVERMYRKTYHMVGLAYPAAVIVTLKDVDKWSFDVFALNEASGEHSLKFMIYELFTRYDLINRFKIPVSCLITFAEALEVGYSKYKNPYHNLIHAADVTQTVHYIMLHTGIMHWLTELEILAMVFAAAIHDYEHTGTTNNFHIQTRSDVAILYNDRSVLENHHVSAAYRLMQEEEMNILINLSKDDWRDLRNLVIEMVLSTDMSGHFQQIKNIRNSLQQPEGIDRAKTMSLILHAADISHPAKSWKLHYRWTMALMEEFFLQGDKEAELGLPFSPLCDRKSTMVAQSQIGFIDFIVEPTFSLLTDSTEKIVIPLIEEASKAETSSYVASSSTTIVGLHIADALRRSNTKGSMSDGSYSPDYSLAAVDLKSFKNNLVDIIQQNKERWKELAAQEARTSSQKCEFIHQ
Description: (§1) i. Supplement 99 μl assay buffer per well, then add 1 μl compound in DMSO dilution to wells of V96 MicroWell Plates and uniformly mix;
(§2) ii. Add 5 μl compound in assay buffer dilution to each well of 96-well microplate;
(§3) the final concentration of compound as below:
(§4) The inhibitory potential of test compounds on several types of phosphodiesterase (PDE) activity is determined according to the protocol of assay kit.

PDE2A = target: T2, PDE2A (Homo sapiens, UniProt O00408); assay: Inhibition of PDE activity (assay kit); format: biochemical
T2 construct: purchased
T2 sequence (O00408 whole entry): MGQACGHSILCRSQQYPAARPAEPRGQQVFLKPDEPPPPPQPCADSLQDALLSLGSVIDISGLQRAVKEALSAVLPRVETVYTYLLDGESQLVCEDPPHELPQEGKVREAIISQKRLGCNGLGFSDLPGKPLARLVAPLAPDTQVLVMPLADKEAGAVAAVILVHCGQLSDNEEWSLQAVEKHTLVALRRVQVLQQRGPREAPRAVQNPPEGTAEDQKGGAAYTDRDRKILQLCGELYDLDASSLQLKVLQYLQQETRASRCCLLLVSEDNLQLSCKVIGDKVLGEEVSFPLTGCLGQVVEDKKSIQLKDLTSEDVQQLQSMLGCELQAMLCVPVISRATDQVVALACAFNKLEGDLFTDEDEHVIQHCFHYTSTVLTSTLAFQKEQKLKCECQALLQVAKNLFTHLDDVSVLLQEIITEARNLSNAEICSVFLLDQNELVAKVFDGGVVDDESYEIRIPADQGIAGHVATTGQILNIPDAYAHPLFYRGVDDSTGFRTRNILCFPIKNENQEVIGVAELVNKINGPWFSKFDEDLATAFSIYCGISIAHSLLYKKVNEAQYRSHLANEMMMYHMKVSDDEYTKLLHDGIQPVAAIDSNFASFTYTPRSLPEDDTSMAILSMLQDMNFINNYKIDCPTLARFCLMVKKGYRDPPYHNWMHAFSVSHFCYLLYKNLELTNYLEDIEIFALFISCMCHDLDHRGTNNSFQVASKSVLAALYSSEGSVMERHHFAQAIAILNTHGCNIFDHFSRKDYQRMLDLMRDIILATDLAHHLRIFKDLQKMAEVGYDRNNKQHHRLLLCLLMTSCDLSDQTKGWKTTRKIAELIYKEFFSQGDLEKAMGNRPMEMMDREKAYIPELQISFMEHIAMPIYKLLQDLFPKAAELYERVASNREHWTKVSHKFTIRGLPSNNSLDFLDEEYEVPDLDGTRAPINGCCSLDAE
Description: as §1, §2, §3, §4

PDE3A = target: T3, PDE3A (Homo sapiens, UniProt Q14432); assay: Inhibition of PDE activity (assay kit); format: biochemical
T3 construct: purchased
T3 sequence (Q14432 whole entry): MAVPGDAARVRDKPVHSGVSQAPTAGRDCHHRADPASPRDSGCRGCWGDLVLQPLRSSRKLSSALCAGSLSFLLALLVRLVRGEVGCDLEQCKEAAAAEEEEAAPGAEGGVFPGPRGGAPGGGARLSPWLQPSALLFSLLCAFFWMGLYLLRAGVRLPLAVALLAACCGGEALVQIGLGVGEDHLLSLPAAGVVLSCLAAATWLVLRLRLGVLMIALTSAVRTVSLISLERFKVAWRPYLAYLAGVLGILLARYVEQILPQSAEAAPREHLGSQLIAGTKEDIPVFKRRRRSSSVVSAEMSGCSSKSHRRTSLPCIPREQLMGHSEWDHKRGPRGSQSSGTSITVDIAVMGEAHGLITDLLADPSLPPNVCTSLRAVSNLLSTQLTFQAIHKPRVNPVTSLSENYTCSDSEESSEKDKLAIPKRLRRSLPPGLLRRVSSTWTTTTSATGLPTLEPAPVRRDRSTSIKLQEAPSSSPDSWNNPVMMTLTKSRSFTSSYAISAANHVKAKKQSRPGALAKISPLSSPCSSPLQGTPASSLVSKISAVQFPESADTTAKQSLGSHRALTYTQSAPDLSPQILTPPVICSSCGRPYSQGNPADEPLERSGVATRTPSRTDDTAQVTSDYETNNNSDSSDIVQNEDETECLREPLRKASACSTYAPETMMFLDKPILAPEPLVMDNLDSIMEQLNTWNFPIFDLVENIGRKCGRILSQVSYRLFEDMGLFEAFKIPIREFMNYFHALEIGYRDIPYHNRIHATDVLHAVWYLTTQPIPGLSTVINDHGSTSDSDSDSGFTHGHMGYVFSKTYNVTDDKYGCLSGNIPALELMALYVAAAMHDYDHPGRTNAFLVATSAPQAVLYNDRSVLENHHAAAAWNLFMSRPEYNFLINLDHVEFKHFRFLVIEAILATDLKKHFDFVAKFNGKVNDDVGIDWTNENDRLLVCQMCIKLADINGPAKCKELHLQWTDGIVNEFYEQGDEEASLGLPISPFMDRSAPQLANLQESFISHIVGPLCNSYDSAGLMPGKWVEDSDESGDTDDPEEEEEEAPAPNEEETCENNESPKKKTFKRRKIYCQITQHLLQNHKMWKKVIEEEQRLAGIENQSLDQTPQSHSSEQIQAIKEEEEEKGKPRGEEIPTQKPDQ
Description: as §1, §2, §3, §4

PDE7A = target: T4, PDE7A (Homo sapiens, UniProt Q13946); assay: Inhibition of PDE activity (assay kit); format: biochemical
T4 construct: purchased
T4 sequence (Q13946 whole entry): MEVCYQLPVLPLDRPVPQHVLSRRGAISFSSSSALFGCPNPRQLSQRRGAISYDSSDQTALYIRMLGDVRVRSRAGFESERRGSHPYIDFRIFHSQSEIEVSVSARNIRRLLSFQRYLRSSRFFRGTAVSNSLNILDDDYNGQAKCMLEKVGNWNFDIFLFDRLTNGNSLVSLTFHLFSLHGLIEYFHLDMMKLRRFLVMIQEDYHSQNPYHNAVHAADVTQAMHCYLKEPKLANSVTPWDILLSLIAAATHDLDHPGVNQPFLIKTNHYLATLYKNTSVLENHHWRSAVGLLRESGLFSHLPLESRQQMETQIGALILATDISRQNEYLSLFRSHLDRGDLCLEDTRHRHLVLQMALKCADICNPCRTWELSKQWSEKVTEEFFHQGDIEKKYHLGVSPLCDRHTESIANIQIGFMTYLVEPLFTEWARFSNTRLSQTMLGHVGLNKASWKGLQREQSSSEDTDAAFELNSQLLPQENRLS
Description: as §1, §2, §3, §4

[2] = background statement; cited from earlier work
PDE5A = target: T5, PDE5A (Homo sapiens, UniProt O76074); assay: Inhibition against PDE5 (Homogenous Time Resolve Fluoresce); format: biochemical; conditions: HTF
T5 construct: purchased SIGMA-ALDRICH E904
Description: Method: IC50 of an inhibition effect on PDE5A (E904, SIGMA-ALDRICH) of test compounds was tested by using Sildenafil (S1431, selleck) as a positive control sample and the method of Homogenous Time Resolve Fluoresce, HTF (Cat. No. 62GM2PEB, Cisbio.)

[3] = SD, rat, plasma, po, 10 mg/kg, Mean of 3 rats
[4] = SD, rat, plasma, po, 10 mg/kg, Mean of 3 rats, read-out: AUC0-inf
[5] = SD, rat, plasma, po, 10 mg/kg, Mean of 3 rats, read-out: AUC0-t
[6] = SD, rat, plasma, po, 10 mg/kg, Mean of 3 rats, read-out: Cmax
[7] = SD, rat, plasma, po, 10 mg/kg, individual rats
[8] = SD, rat, plasma, po, 10 mg/kg, individual rats, read-out: AUC0-inf
[9] = SD, rat, plasma, po, 10 mg/kg, individual rats, read-out: AUC0-t
[10] = SD, rat, plasma, individual rats

## CN1CC(=O)N2[C@H](c3ccc4c(c3)OCO4)c3[nH]c4ccccc4c3C[C@@H]2C1=O [Cialis]
[1]; Mean of 3 rats
  AUMC0-inf: 54240 h · h · ng · mL^−1
  AUMC0-t: 52702 h · h · ng · mL^−1
  Kel: 0.248 h⁻¹
  MRTPO: 6.07 h
[1]; [3]
  half-life: 2.99 h
[1]; [4]
  AUC0-inf: 8860 ng·h/mL
[1]; [5]
  AUC0-t: 8810 ng·h/mL
[1]; [6]
  Cmax: 926 ng/mL
[1]; [7]
  half-life: 3.46 h
[1]; [8]
  AUC0-inf: 8810 ng·h/mL
[1]; [9]
  AUC0-t: 8720 ng·h/mL
[1]; [10]
  Tmax: 4 h
[1]; individual rats
  AUC0-inf: 6051 ng·h/mL and 11729 ng·h/mL
  AUC0-t: 5993 ng·h/mL and 11723 ng·h/mL
  AUMC0-inf: 56364 h · h · ng · mL^−1 and 34440 h · h · ng · mL^−1 and 71915 h · h · ng · mL^−1
  AUMC0-t: 53611 h · h · ng · mL^−1 and 32747 h · h · ng · mL^−1 and 71748 h · h · ng · mL^−1
  Cmax: 747 ng/mL and 676 ng/mL and 1356 ng/mL
  Kel: 0.200 h⁻¹ and 0.197 h⁻¹ and 0.346 h⁻¹
  MRTPO: 6.40 h and 5.69 h and 6.13 h
  t1/2: 3.51 h and 2.00 h
Normal rat; 2 hours after dosing
  BP after stimulation: 64.14 ± 9.86 mmHg
  BP before stimulation: 100.98 ± 4.48 mmHg
  Change of BP: 36.85 ± 7.34 mmHg
  Change of ICP: 31.82 ± 7.63 mmHg
  Detumescence Time: 40.50 ± 21.14 s
  ICP after stimulation: 39.19 ± 8.58 mmHg
  ICP before stimulation: 7.38 ± 1.75 mmHg
Normal rat; 6 hours after dosing
  BP after stimulation: 58.14 ± 14.30 mmHg
  BP before stimulation: 91.20 ± 28.48 mmHg
  Change of BP: 33.07 ± 17.13 mmHg
  Change of ICP: 34.15 ± 6.99 mmHg
  Detumescence Time: 44.25 ± 13.35 s
  ICP after stimulation: 41.76 ± 6.49 mmHg
  ICP before stimulation: 7.61 ± 1.53 mmHg
Normal rat; 24 hours after dosing
  BP after stimulation: 78.00 ± 2.68 mmHg
  Change of BP: 34.26 ± 7.18 mmHg
  Change of ICP: 35.38 ± 4.55 mmHg
  Detumescence Time: 41.25 ± 10.34 s
  ICP after stimulation: 43.01 ± 6.19 mmHg
  ICP before stimulation: 7.63 ± 4.03 mmHg
PDE1A
  pIC50: < 5.00
PDE2A
  pIC50: < 5.00
PDE3A
  pIC50: < 5.00
PDE7A
  pIC50: < 5.00
[2]
  half-life in body: 24 to 36 h

## NN1CC(=O)N2[C@H](c3ccc4c(c3)OCO4)c3[nH]c4ccccc4c3C[C@@H]2C1=O [DDCI02]
PDE5A
  pIC50: 6.25
[1]; Mean of 3 rats
  AUMC0-inf: 69719 h · h · ng · mL^−1
  AUMC0-t: 63864 h · h · ng · mL^−1
  Kel: 0.193 h⁻¹
  MRTPO: 4.19 h
[1]; [3]
  half-life: 3.73 h
[1]; [4]
  AUC0-inf: 16300 ng·h/mL
[1]; [5]
  AUC0-t: 16100 ng·h/mL
[1]; [6]
  Cmax: 4680 ng/mL
[1]; [7]
  half-life: 4.85 h
[1]; [8]
  AUC0-inf: 18600 ng·h/mL
[1]; [9]
  AUC0-t: 18100 ng·h/mL
[1]; SD, rat, plasma, po, 10 mg/kg, individual rats, read-out: Cmax
  Cmax: 4580 ng/mL
[1]; [10]
  Tmax: 0.25 h
[1]; individual rats
  AUC0-inf: 15617 ng·h/mL and 14794 ng·h/mL
  AUC0-t: 15563 ng·h/mL and 14723 ng·h/mL
  AUMC0-inf: 99393 h · h · ng · mL^−1 and 57718 h · h · ng · mL^−1 and 52047 h · h · ng · mL^−1
  AUMC0-t: 85428 h · h · ng · mL^−1 and 56156 h · h · ng · mL^−1 and 50008 h · h · ng · mL^−1
  Cmax: 4288 ng/mL and 5171 ng/mL
  Kel: 0.143 h⁻¹ and 0.221 h⁻¹ and 0.216 h⁻¹
  MRTPO: 5.35 h and 3.70 h and 3.52 h
  t1/2: 3.14 h and 3.21 h
